Data from patent US20060234910A1, “Methods for the treatment of insulin resistance and disease states characterized by insulin resistance” (priority 2005, published 2006).

Experiments:
MINOR gene expression = test: Quantitative real-time PCR of MINOR gene expression in 3T3-L1 adipocytes; format: cell-based; settings: for insulin-stimulated MINOR gene expression: 1 hour
Description: (§1) FIGS. 3A-3C show the effect of insulin stimulation on MINOR and TR3 gene expression in 3T3-L1 adipocytes. FIGS. 3A and 3B show insulin induces the expression of MINOR and TR3 gene expression in 3T3-L1 adipocytes. Fully differentiated 3T3-L1 adipocytes were treated with 100 nM of insulin for up to 8 hours (treated) or 0 nM insulin (0 hour control). The control and treated adipocytes were lysed and the mRNAs were extracted for cDNA synthesis. Quantitative real-time PCR was used to measure expression of MINOR (FIG. 3A) and TR3 (FIG. 3B) genes. Results represent the mean±SE from three separate experiments. […] Fully differentiated 3T3-L1 adipocytes were treated with 100 nM of insulin alone (control) or plus LY294002 (PI 3-kinase inhibitor), SB203580 (p38 MAP kinase inhibitor), Ro318220 (protein kinase C inhibitor) for one hour. The control and treated adipocytes were lysed and the mRNAs were extracted for cDNAs synthesis. A quantitative real-time PCR was performed for detecting the expression levels of MINOR and TR3 genes. Results represent the mean±SE from three separate experiments.
(§2) Fully differentiated 3T3-L1 adipocytes were treated with 10 uM of the indicated thiazolidinedione (troglitazone or pioglizatone) from 0 to 48 hours. Control cells received vehicle alone. The control and treated adipocytes were lysed and the mRNAs were extracted for cDNA synthesis. Quantitative real-time PCR was used to measure expression levels of MINOR (FIGS. 4A and 4B) and TR3 (FIGS. 4C and 4D) genes. Results represent the mean±SE from three separate experiments.
(§3) Fully differentiated 3T3-L1 adipocytes were treated with 100 nM of insulin for various times (0 to 8 hours; the 0 hour time point served as the control and received no added insulin). The control and treated adipocytes were lysed and the mRNAs were extracted for cDNAs synthesis. A quantitative real-time PCR was performed for detecting the expression levels of MINOR and TR3 genes. […] Insulin also stimulated TR3 gene expression adipocytes, but with a different temporal response with TR3 expression levels returning to baseline by hour 2 after treatment (FIG. 3B).
(§4) The stimulatory effect of insulin on MINOR and TR3 gene expression was dependent on signal transduction via the PI-3-kinase pathway, the p38 MAP-K pathway and the protein kinase C (PKC) pathway. […] A quantitative real-time PCR was performed for detecting the expression levels of MINOR and TR3 genes. […]
(§5) Fully differentiated 3T3-L1 adipocytes were treated with 10 uM of the indicated thiazolidinedione (troglitazone or pioglizatone) from 0 to 48 hours. […] Quantitative real-time PCR was used to measure expression levels of MINOR (FIGS. 4A and 4B) and TR3 (FIGS. 4C and 4D) genes. […]

TR3 gene expression = test: Quantitative real-time PCR of TR3 gene expression in 3T3-L1 adipocytes; format: cell-based; settings: for insulin-stimulated TR3 gene expression: 1 hour
Description: as §1, §2, §3, §4, §5

Nurr1 gene expression = Nurr1 gene expression in 3T3-L1 adipocytes; format: cell-based; settings: fully differentiated 3T3-L1 adipocytes, 100 nM insulin; data not shown
[1] = system: MINOR gene expression in skeletal muscle; test: cDNA microarray of skeletal muscle biopsies, basal vs hyperinsulinemia (MINOR); format: in vivo, human; settings: insulin stimulation, three hours of hyperinsulinemia vs basal
Excerpt: (§6) The primary target tissues for insulin action are skeletal muscle, adipose tissue, and the liver tissue. Skeletal muscle is the predominant target tissue for insulin-mediated glucose uptake (responsible for approximately 95% of glucose uptake), and is a critical locus of insulin resistance. Defects in glucose uptake in skeletal muscle is a predominate contributor to the clinical manifestations of insulin resistance. The molecular basis for insulin resistance is not well understood, but appears to involve defects in insulin signal transduction and abnormal cellular trafficking of glucose transporter proteins (5). To better understand the molecular defects responsible for human insulin resistance, skeletal muscle biopsies were obtained from volunteers in three metabolically-defined subgroups: A) insulin sensitive: (B) insulin resistant; and (C) type 2 diabetic. Biopsies from each subgroup were obtained under both basal conditions and after three hours of hyperinsulinemia. Differential gene expression in these muscle biopsies was assessed using cDNA microarray technology utilizing the Affymetrix Hu95A gene expression chips (carried out as per manufacturer's instructions). The effect of insulin on gene expression in human muscle has not been extensively studied, and most prior studies focused on single genes or small numbers of genes with a limited focus (6-8). […]

[2] = system: TR3 gene expression in skeletal muscle; test: cDNA microarray of skeletal muscle biopsies, basal vs hyperinsulinemia (TR3); format: in vivo, human; settings: insulin stimulation, three hours of hyperinsulinemia vs basal
Excerpt: as §6

[3] = system: GLUT4 glucose transporters at plasma membrane; test: Plasma membrane lawn assay of GLUT4 in adipocytes; format: cell-based; settings: control (LacZ transfected) adipocytes, 100 nM insulin, 30 min vs basal
Description: FIGS. 6A-6D show the effect of MINOR gene expression on insulin-mediated recruitment of GLUT4 glucose transporters to plasma membrane. MINOR gene transduced 3T3-L1 fibroblasts and control LacZ transduced fibroblasts were grown on glass cover slips and differentiated into adipocytes. Adipocytes were then stimulated for 30 min with (insulin-stimulated) or without (basal) 100 nM of insulin. The adipocytes were then washed, and disrupted by sonication leaving and plasma membrane sheets attached to cover slips (plasma membrane lawn assay) (26). Plasma membrane associated GLUT4 was detected using a polyclonal anti-GLUT4 antibody and a FITC-conjugated secondary antibody. (A) basal LacZ expressing adipocytes; (B) insulin-stimulated LacZ expressing adipocytes; (C) basal Minor expressing adipocytes; (D) insulin-stimulated Minor expressing adipocytes.
These experiments use the “plasma membrane lawn” technique (26) to quantify the relative amounts of GLUT4 glucose transporter proteins in the cell surface plasma membrane. MINOR gene transduced 3T3-L1 fibroblasts and control LacZ transduced fibroblasts were grown on glass cover slips and differentiated into adipocytes. […] Plasma membrane associated GLUT4 was detected using a polyclonal anti-GLUT4 antibody and a FITC-conjugated secondary antibody.

[4] = 3T3-L1 adipocytes, 100 nM insulin plus inhibitor 50 nM
[5] = 3T3-L1 adipocytes, 100 nM insulin plus inhibitor 10 nM
[6] = 3T3-L1 adipocytes, 100 nM insulin
[7] = fully differentiated 3T3-L1 adipocytes, 100 nM insulin, 0 to 8 hours

Cn1cc(C2=C(c3cn(CCCSC(=N)N)c4ccccc34)C(=O)NC2=O)c2ccccc21 [Ro318220, reference compound]
insulin-stimulated MINOR gene expression (MINOR gene expression; [4]): decreased the ability of insulin to stimulate
insulin-stimulated TR3 gene expression (TR3 gene expression; [4]): decreased the ability of insulin to stimulate

C[S+]([O-])c1ccc(-c2nc(-c3ccncc3)c(-c3ccc(F)cc3)[nH]2)cc1 (stereo not drawn) [SB203580, reference compound]
insulin-stimulated MINOR gene expression (MINOR gene expression; [5]): decreased the ability of insulin to stimulate
insulin-stimulated TR3 gene expression (TR3 gene expression; [5]): decreased the ability of insulin to stimulate

insulin
period over which the increase in MINOR gene expression is sustained (MINOR gene expression; [6]): 4 h
MINOR gene expression (MINOR gene expression; [7]): stimulated
time at which TR3 expression levels return to baseline after treatment (TR3 gene expression; [6]): ≤ 2 h
TR3 gene expression (TR3 gene expression; [7]): stimulated
Nurr1 gene expression (Nurr1 gene expression): not stimulated
MINOR gene expression in human skeletal muscles (microarray) [1]: strongly induced
TR3 gene expression in human skeletal muscles (microarray) [2]: strongly induced
plasma membrane associated GLUT4 [3]: increased GLUT4 staining in the plasma membrane
